# Results from ChEMBL document CHEMBL4190365, “Synthesis and antiproliferative properties of new hydrophilic esters of triterpenic acids” (Eur J Med Chem, 2017).
# The source made the active and inactive calls. No cut-off for these calls is given here.
# How the values were obtained:
# [1] = system: G-361; experiment: Induction of apoptosis in human G361 cells assessed as effect on Bcl2 protein levels at 10 uM incubated for 24 hrs by Western blot method; assay type: functional, cell-based
# [2] = system: G-361; experiment: Induction of apoptosis in human G361 cells assessed as increase in caspase3/7 activity at 1 uM using Ac-DEVD-AMC substrate incubated for 24 hrs by fluorometric assay relative to untreated control; assay type: functional
# [3] = system: CCRF-CEM; experiment: Cytotoxicity in human CEM cells assessed as reduction in cell viability incubated for 72 hrs by calcein AM cytotoxicity assay; assay type: functional, cell-based; settings: Homo sapiens, CCRF-CEM, 72 h
# [4] = system: G-361; experiment: Induction of apoptosis in human G361 cells assessed as effect on Bcl2 protein levels at 1 uM incubated for 24 hrs by Western blot method; assay type: functional, cell-based
# [5] = system: BJ; experiment: Cytotoxicity in human BJ cells assessed as reduction in cell viability incubated for 72 hrs by calcein AM cytotoxicity assay; assay type: functional, cell-based; settings: Homo sapiens, BJ, 72 h
# [6] = system: HeLa; experiment: Cytotoxicity in human HeLa cells assessed as reduction in cell viability incubated for 72 hrs by calcein AM cytotoxicity assay; assay type: functional, cell-based; settings: Homo sapiens, HeLa, 72 h
# [7] = system: G-361; experiment: Induction of apoptosis in human G361 cells assessed as induction of caspase-3 expression at 10 uM incubated for 24 hrs by Western blot method; assay type: functional, cell-based
# [8] = system: MCF7; experiment: Cytotoxicity in human MCF7 cells assessed as reduction in cell viability incubated for 72 hrs by calcein AM cytotoxicity assay; assay type: functional, cell-based; settings: Homo sapiens, MCF7, 72 h
# [9] = system: G-361; experiment: Induction of apoptosis in human G361 cells assessed as induction of caspase-7 degradation in to cleaved fragments at 1 uM incubated for 24 hrs by Western blot method; assay type: functional, cell-based
# [10] = system: G-361; experiment: Induction of cell cycle arrest in human G361 cells assessed as reduction in accumulation at G2M phase at 1 uM incubated for 24 hrs by propidium iodide staining based flow cytometry; assay type: functional
# [11] = system: G-361; experiment: Induction of cell cycle arrest in human G361 cells assessed as increase in accumulation at subG1 phase at 10 uM incubated for 24 hrs by propidium iodide staining based flow cytometry; assay type: functional
# [12] = system: G-361; experiment: Cytotoxicity in human G361 cells assessed as reduction in cell viability incubated for 72 hrs by calcein AM cytotoxicity assay; assay type: functional, cell-based; settings: Homo sapiens, G-361, 72 h
# [13] = system: G-361; experiment: Induction of cell cycle arrest in human G361 cells assessed as increase in accumulation at subG1 phase at 1 uM incubated for 24 hrs by propidium iodide staining based flow cytometry; assay type: functional
# [14] = system: G-361; experiment: Induction of apoptosis in human G361 cells assessed as reduction Mcl1 protein levels at 10 uM incubated for 24 hrs by Western blot method; assay type: functional, cell-based
# [15] = system: G-361; experiment: Induction of cell cycle arrest in human G361 cells assessed as increase in accumulation at G0/G1 phase at 1 uM incubated for 24 hrs by propidium iodide staining based flow cytometry; assay type: functional
# [16] = system: G-361; experiment: Induction of apoptosis in human G361 cells assessed as increase in caspase3/7 activity at 10 uM using Ac-DEVD-AMC substrate incubated for 24 hrs by fluorometric assay relative to untreated control; assay type: functional
# [17] = system: G-361; experiment: Induction of apoptosis in human G361 cells assessed as reduction total Rb protein levels at 10 uM incubated for 24 hrs by Western blot method; assay type: functional, cell-based
# [18] = system: G-361; experiment: Induction of cell cycle arrest in human G361 cells assessed as reduction in accumulation at G2M phase at 10 uM incubated for 24 hrs by propidium iodide staining based flow cytometry; assay type: functional
# [19] = system: G-361; experiment: Induction of cell cycle arrest in human G361 cells assessed as increase in accumulation at G0/G1 phase at 10 uM incubated for 24 hrs by propidium iodide staining based flow cytometry; assay type: functional
# [20] = system: G-361; experiment: Induction of apoptosis in human G361 cells assessed as induction of caspase-7 degradation in to cleaved fragments at 10 uM incubated for 24 hrs by Western blot method; assay type: functional, cell-based
# [21] = system: G-361; experiment: Induction of apoptosis in human G361 cells assessed as induction of caspase-3 expression at 1 uM incubated for 24 hrs by Western blot method; assay type: functional, cell-based
# [22] = system: G-361; experiment: Induction of apoptosis in human G361 cells assessed as reduction Mcl1 protein levels at 1 uM incubated for 24 hrs by Western blot method; assay type: functional, cell-based
# [23] = system: G-361; experiment: Induction of apoptosis in human G361 cells assessed as induction of PARP cleavage at 10 uM incubated for 24 hrs by Western blot method; assay type: functional, cell-based
SMILES,Activity [1],IC50 [3],Activity [4],IC50 [5],IC50 [6],Activity [7],IC50 [8],Activity [9],Activity [10],Activity [11],IC50 [12],Activity [13],Activity [14],Activity [15],Activity [17],Activity [18],Activity [19],Activity [20],Activity [21],Activity [22],other results
C=C(C)[C@@H]1CC[C@]2(C(=O)O[C@@H]3O[C@H](COC(C)=O)[C@H](OC(C)=O)[C@H](OC(C)=O)[C@H]3OC(C)=O)CC[C@]3(C)[C@H](CC[C@@H]4[C@@]5(C)CC[C@H](O)C(C)(C)[C@@H]5CC[C@]43C)[C@@H]12,inactive,9 µM,inactive,> 50 µM,3.3 µM,inactive,2500 nM,Active,Active,Active,3400 nM,Active,Active,Active,Active,Active,Active,Active,inactive,Active,Activity [2]: inactive; Activity [16]: inactive; Activity [23]: Active
CC(=O)O[C@H]1CC[C@]2(C)[C@H]3CC[C@@H]4C5=C(C(C)C)C(=O)C[C@]5(C(=O)OCC(=O)OCc5ccccc5)CC[C@@]4(C)[C@]3(C)CC[C@H]2C1(C)C,inactive,6 µM,inactive,> 50 µM,2.8 µM,inactive,1800 nM,Active,Active,Active,1600 nM,Active,Active,Active,Active,Active,Active,Active,inactive,Active,fold change (FC) [2]: 3; Activity [23]: Active
